Reference: patent US5219884A, “Immunosuppressant” (Taito Co., Ltd., priority 1990, dated 1993)

Tests used:
[1] = test system: interleukin 6 (IL6) response of mouse spleen cells; assay: suppression of interleukin 6 (IL6) response of mouse spleen cells (plaque assay); assay type: cell-based
Method: The spleen was resected from 8-week-old male BALB/c mice, and single cell suspension in the serum-free RPMI1640 culture medium was prepared, and thereafter cell pellets were obtained by centrifugation (1000 rpm, 5 minutes) of the suspension. Then a mixture of 9 parts of a 0.16 M ammonium chloride solution and 1 part of a 0.17 M Tris solution (pH 7.65) was added to lyse red blood cells, and the suspension was washed three times with the serum-free RPMI1640 culture medium. The obtained cells were suspended to the concentration of 5×10^6 cells/ml in the RPMI1640 culture medium supplemented with 20% FCS, 5×10^-5 M 2-mercaptoethanol, 2×10^-3 M L glutamine, 1×10^-3 sodium pyruvate and 25% of the supernatant of the culture of T24 human bladder carcinoma cell line as a source of interluekin 6. One hundred μl of this cell suspension and 100 μl of the test substance were mixed in each well of 96-well microculture plates, and cultured at 37° C. in an atmosphere of 5% carbon dioxide for 72 hours. After termination of the culture, 50 μl of the cell suspension was collected from each well. Three hundred μl of the RPMI1640 culture medium supplemented with 0.7% agarose gel, 20 μl of physiological saline containing 40% protein A-bound sheep red blood cells and 20 μl of 300-fold dilution of anti-mouse IgG anti-serum diluted in physiological saline were mixed in a test tube, and extended uniformly on Rohduck plates (Falcon Co. 1034). After gel formation by keeping still at room temperature for a few minutes, the plates were cultured at 37° C. in an atmosphere of 5% carbon dioxide for about 4 hours.
Three hundred μl of a 40-fold dilution of guinea pig complement in the serum-free RPMI1640 culture medium was added to each plate, which was then incubated for further 2 hours. The number of plaques formed was counted under stereoscopic microscope.
SD in the Table means standard deviation. The percent suppression (%) was calculated by the following formula. [formula]

[2] = test system: allo-reactive cytotoxic T cells (EL4 target cells); assay: suppression of allo-reactive cytotoxic T cells induced by immunization of mouse with allogenic cells; assay type: in vivo; details: 0.1 mg/kg/day i.p., 6 times
Method: Male BALB/c mice were immunized with spleen cells of C57BL/6 mice (5×10^7 cells/mouse, intraperitoneal administration), and ISP-I in Example 1 was administered intraperitoneally 6 times at the doses of 0.1 mg/kg/day from the next day of immunization. Eight days after immunization, the spleen was resected to prepare effector cells, with which the ^51 Cr release test was carried out as in Experimental Example 3, using EL4 cells as the target cells to measure the cytotoxic activity.

Q: Which Number of plaque ([1]; 0.002 μg/ml) does the source give for `CCCCCCC(=O)CCCCCC/C=C/CC(O)C(O)C(N)(CO)C(=O)O` (centres unmarked) [Example 1] here?
A: Its Number of plaque is 130 ± 4 plaque/1 × 10^6 cells ± SD.

Q: And the Number of plaque ([1]; 0.02 μg/ml)?
A: The Number of plaque was 108 ± 10 plaque/1 × 10^6 cells ± SD.

Q: And the Number of plaque ([1]; 0.2 μg/ml)?
A: The Number of plaque was 78 ± 6 plaque/1 × 10^6 cells ± SD.

Q: And the Number of plaque ([1]; 2 μg/ml)?
A: Its Number of plaque is 60 ± 8 plaque/1 × 10^6 cells ± SD.

Q: And the inhibition at 0.002 µg/mL ([1]; Mus musculus, 72 h, 0.002 μg/ml)?
A: The inhibition at 0.002 µg/mL was 39.2%.

Q: What about the inhibition at 0.02 µg/mL ([1]; Mus musculus, 72 h, 0.02 μg/ml) of the same compound?
A: Its inhibition at 0.02 µg/mL is 50.5%.

Q: And the inhibition at 0.2 µg/mL ([1]; Mus musculus, 72 h, 0.2 μg/ml)?
A: The inhibition at 0.2 µg/mL was 66%.

Q: And the inhibition at 2 µg/mL ([1]; Mus musculus, 72 h, 2 μg/ml)?
A: The inhibition at 2 µg/mL was 75.3%.

Q: And the “Amount of 51Cr release” value ([2]; effector:target 25:1)?
A: The value was 1046 cpm.

Q: What about the Cytotoxic activity ([2]; effector:target 25:1) of the same compound?
A: The Cytotoxic activity was 5%.

Q: What about the “Amount of 51Cr release” value ([2]; effector:target 50:1) of the same compound?
A: The value was 1258 cpm.

Q: What about the Cytotoxic activity ([2]; effector:target 50:1) of the same compound?
A: The Cytotoxic activity was 8%.

Q: And the “Amount of 51Cr release” value ([2]; effector:target 100:1)?
A: The value was 1543 cpm.

Q: And the Cytotoxic activity ([2]; effector:target 100:1)?
A: The Cytotoxic activity was 13%.
